Results on eight compounds are retold here after patent US10640545B2 (THE GOVERNORS OF THE UNIVERSITY OF ALBERTA, priority 2017, dated 2020).

For orientation: amount remaining means the share of the starting amount still present when the sample was taken. Lower therefore signals more turnover. As a reminder, the half-life is how long it takes for the measured level to halve. Usually Km stands for the concentration of substrate that gives half-maximal velocity. Usually kcat stands for the number of substrate molecules converted per active site and unit of time at saturation.

Where a SMILES comes first, the peptide text is derived from it. [ ]: non-standard residue; d: D form. The star is where a group is joined. Phe(4-Br) = N[C@@H](Cc1ccc(Br)cc1)C(=O)O; Palmitoyl = CCCCCCCCCCCCCCCC(=O)*; NMeL = CN[C@@H](CC(C)C)C(=O)O; Nle = CCCC[C@H](N)C(=O)O; Aib = CC(C)(N)C(=O)O Bounds are passed on as bounds.

Series [1] deals with recombinant human neprilysin (rhNEP, Sino Biological). As to the kind of experiment: rhNEP diluted in Tris buffer (100 mM Tris, 100 mM NaCl, 10 μM ZnCl2, pH 7.5), 3.1 nM final concentration. Conditions: 37° C., up to 72 h.
The test system of series [2] is Angiotensin converting enzyme 2 (ACE2). The series can be described thus: in vitro and in vivo. Conditions: cited from earlier work.
The target in series [3] is NEP (Homo sapiens, UniProt P08473). As to the kind of experiment: Neprilysin degradation assay (LC-MS, quantitative). The settings on record: rhNEP, 37° C., up to 72 h, LC-MS. The protocol: (§1) This experiment compared the in vitro NEP stability of the Arg/Leu peptides of the embodiments to native apelin isoforms and their A2 substituted counterparts. Peptides were incubated with recombinant human NEP (rhNEP, Sino Biological) at 37° C. for up to 72 h, and the extent of degradation was analyzed via LC-MS because of the overlapping elution patterns of peptide fragments. […] (McKinnie, S. M. K., et al. ChemBioChem: 17, 1495-1498 (2016)). […] (Dion, N., et al., Biochem. J.: 311, 623-627 (1995); Bateman Jr., R. C., et al., J. Biol. Chem.: 264, 6151-6157 (1989); McMurray, J. J. et al., J. Med.: 371, 993-1004 (2014)).
(§2) Apelin peptides were dissolved in Milli-Q water (1 mM). Recombinant human neprilysin (rhNEP, Sino Biological) was reconstituted in Tris buffer (100 mM Tris, 100 mM NaCl, 10 μM ZnCl2, pH 7.5). To initiate the assay, rhNEP was diluted in Tris buffer (3.1 nM final concentration), and preincubated at 37° C. for 10 minutes prior to the addition of 5 μL of apelin peptide (1 mM) and 1.5 μL internal standard dansyl-Tyr-Val-Gly-OH (1 mM). Aliquots (10 μL) were removed at 0, 1, 4, 24, and 72 h, quenched with 0.1 M EDTA (10 μL), diluted to 100 μL with Milli-Q water and analyzed by LC-MS. Assays were performed in triplicate (n=3) for each time point. Integrated peak areas of the parent apelin peptide and internal standard derived from LC-MS analyses, were extracted using Mass Hunter software (version B.04.00) and compared in positive extracted ion count modus (+EIC, extracted-ion chromatogram). […] (apelin:dansyl-YVG), to the same ratio at the different assay time points. The decrease in apelin:dansyl-YVG ratio was converted to a percentage of cleaved peptide over time.
(§3) The extent of degradation was analyzed via LC-MS because of the overlapping elution patterns of peptide fragments (NEP).
(§4) Native apelin-17 (2) and apelin peptides 5, 54, 56, 57, 58 and 59 were dissolved in Milli-Q water (1 mM). Recombinant human neprilysin (rhNEP, Sino Biological) was reconstituted in Tris buffer (100 mM Tris, 100 mM NaCl, 10 μM ZnCl2, pH 7.5). To initiate the assay, rhNEP was diluted in Tris buffer (3.1 nM final concentration) and preincubated at 37° C. for 10 min prior to the addition of 5 μL of apelin peptide (1 mM) and 1.5 μL of internal standard dansyl-Tyr-Val-Gly-OH (1 mM). Aliquots (10 μL) were removed at 0, 1, 4, 24, and 72 h, quenched with 0.1 M EDTA (10 μL), diluted to 100 μL with Milli-Q water, and analyzed by LC-MS. Assays were performed in triplicate (n=3) for each time point. Integrated peak areas of the parent apelin peptide and internal standard derived from LC-MS analyses were extracted using Mass Hunter software (version B.04.00) and compared in positive extracted ion count modus (+EIC). The extent of proteolysis was determined by comparing the initial (0 h) ratio of the integrated extracted ions of the parent apelin peptide to the internal dansyl-YVG standard (apelin/dansyl-YVG) to the same ratio at the different assay time points. The decrease in apelin/dansyl-YVG ratio was converted to a percentage of cleaved peptide over time.

The test system of series [4] is KLKB1 (rhKLKB1, Novoprotein). The series can be described thus: Human plasma kallikrein KLKB1 in Tris buffer, KLKB1 concentration of 2 ng/pL. The settings on record: 37° C., up to 48 hours.
A short description of series [5]: in vitro. The settings on record: human, plasma.
In series [6] the target is T1, KLKB1 (plasma kallikrein) (Homo sapiens, UniProt P03952).
T1 construct: purchased Novoprotein
As to the kind of experiment: In vitro KLKB1 stability (half-life). The series is classed as in vitro ADME. Conditions: human.

In series [7] the target is neprilysin (NEP) (Homo sapiens, UniProt P08473). The series can be described thus: in vitro. The settings on record: human, pH 7.5. The procedure: as §1, §2, §3, §4
Series [8] addresses Human plasma kallikrein KLKB1 (Homo sapiens, UniProt P03952). As to the kind of experiment: Plasma kallikrein KLKB1 qualitative cleavage assay (MALDI-TOF). The procedure:
Native apelin-17 (2) and apelin peptides 5, 56, 57, 58 and 59 were dissolved in Milli-Q water (1 mM). Human plasma kallikrein KLKB1 were each reconstituted in Tris buffer (100 mM TrisHCl, 10 mM CaCl2), 150 mM NaCl) and diluted with Tris buffer (50 mM TrisHCl, 250 mM NaCl) to give a KLKB1 concentration of […]. The KLKB1 enzyme was then preincubated at 37° C. for 10 minutes prior to the addition of 5 μL of apelin peptide (1 mM). Aliquots (1 μL) were taken at 1, 2, 4, 6, 12, 24, 36, and 48 hours and analyzed with MALDI-TOF mass spectrometry to qualitatively determine the time point at which degradation products could be observed (Table 4).

In series [9] the target is KLKB1 (Homo sapiens, UniProt P03952). The series can be described thus: Kinetic parameters for KLKB1 cleavage. The series is classed as biochemical. Also noted: purchased Novoprotein. The settings on record: enzyme KLKB1.
Sequence of KLKB1 (P03952 20-638): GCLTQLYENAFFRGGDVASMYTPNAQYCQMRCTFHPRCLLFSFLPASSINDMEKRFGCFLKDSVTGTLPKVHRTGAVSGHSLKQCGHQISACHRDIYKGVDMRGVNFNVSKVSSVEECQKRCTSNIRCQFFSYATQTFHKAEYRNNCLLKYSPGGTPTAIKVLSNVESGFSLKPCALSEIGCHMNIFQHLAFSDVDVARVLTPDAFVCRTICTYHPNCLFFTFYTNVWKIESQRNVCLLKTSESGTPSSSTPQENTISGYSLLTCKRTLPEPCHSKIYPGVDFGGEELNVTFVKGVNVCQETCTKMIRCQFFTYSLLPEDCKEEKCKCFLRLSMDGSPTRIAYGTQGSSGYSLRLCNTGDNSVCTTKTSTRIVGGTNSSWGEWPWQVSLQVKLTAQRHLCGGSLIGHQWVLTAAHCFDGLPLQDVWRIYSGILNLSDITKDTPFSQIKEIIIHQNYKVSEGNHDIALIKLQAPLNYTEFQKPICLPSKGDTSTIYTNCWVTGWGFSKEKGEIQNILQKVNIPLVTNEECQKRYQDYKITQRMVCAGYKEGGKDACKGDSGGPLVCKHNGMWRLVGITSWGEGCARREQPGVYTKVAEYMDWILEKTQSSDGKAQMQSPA

Sequence of neprilysin (NEP) (P08473 whole entry): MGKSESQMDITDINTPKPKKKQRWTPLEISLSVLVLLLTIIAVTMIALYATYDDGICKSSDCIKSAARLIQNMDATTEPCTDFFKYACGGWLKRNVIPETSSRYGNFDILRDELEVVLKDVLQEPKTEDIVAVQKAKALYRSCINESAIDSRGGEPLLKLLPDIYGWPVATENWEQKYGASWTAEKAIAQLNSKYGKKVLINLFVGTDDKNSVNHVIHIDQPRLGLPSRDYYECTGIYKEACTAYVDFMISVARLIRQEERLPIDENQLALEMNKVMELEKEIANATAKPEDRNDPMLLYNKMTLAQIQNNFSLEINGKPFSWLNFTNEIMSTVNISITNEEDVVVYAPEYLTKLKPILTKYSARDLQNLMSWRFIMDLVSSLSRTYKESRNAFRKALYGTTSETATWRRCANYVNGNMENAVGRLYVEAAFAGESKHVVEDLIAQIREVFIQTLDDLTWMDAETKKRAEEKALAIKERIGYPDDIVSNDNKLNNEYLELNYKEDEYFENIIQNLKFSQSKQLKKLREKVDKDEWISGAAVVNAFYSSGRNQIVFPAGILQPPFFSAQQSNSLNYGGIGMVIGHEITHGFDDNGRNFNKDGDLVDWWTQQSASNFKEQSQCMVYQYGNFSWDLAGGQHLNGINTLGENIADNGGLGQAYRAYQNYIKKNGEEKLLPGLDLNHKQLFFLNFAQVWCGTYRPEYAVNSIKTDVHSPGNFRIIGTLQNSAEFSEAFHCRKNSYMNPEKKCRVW
T1 sequence (P03952 20-638): as the sequence (P03952 20-638) above
Sequence of Human plasma kallikrein KLKB1 (P03952 20-638): as above
Sequence of NEP (P08473 whole entry, the tested form may be a part, canonical isoform): as the sequence (P08473 whole entry) above

Regarding (Pyr)RPRLSHKGPMPF, the not cleaved entry in series [1] was “C-terminal dipeptide excision was not observed”. Besides, in [2], the cleaved bond entry is given as “Pro-Phe”.
With `CSCC[C@H](NC(=O)[C@@H]1CCCN1C(=O)CNC(=O)[C@H](CCCCN)NC(=O)[C@H](Cc1cnc[nH]1)NC(=O)[C@H](CO)NC(=O)[C@H](CC(C)C)NC(=O)[C@H](CCCNC(=N)N)NC(=O)[C@@H]1CCCN1C(=O)[C@H](CCCNC(=N)N)NC(=O)[C@@H]1CCC(=O)N1)C(=O)N1CCC[C@H]1C(=O)N[C@@H](Cc1ccccc1)C(=O)O` [Peptide 1, reference compound], in series [3], the “in vitro NEP proteolytic stability (in words)” value is “degraded by NEP at rates comparable to those previously reported”.
Consider KFRRQRPRLSHKGPMPF, for which the not cleaved entry in series [1] was “C-terminal dipeptide excision was not observed”. The cleaved bond result in series [2] is on record as “Pro-Phe”; in series [4], “Arg3-Arg4, <30 min”.
For the compound `CCCC[C@H](NC(=O)[C@@H]1CCCN1C(=O)CNC(=O)[C@H](CCCCN)NC(=O)[C@H](Cc1c[nH]cn1)NC(=O)[C@H](CO)NC(=O)[C@H](CC(C)C)NC(=O)[C@H](CCCNC(=N)N)NC(=O)[C@@H]1CCCN1C(=O)[C@H](CCCNC(=N)N)NC(=O)[C@H](CCC(N)=O)NC(=O)[C@H](CCCNC(=N)N)NC(=O)[C@H](CCCNC(=N)N)NC(=O)[C@H](Cc1ccccc1)NC(=O)[C@@H](N)CCCCN)C(=O)NC(C)(C)C(=O)N[C@@H](Cc1ccc(Br)cc1)C(=O)O` [Peptide 5] (H-KFRRQRPRLSHKGP[Nle][Aib][Phe(4-Br)]-OH; C-terminus assumed), in series [5], the share remaining at 0.5 h, 80 µM worked out at 43 ± 1% and the share remaining at 1 h, 80 µM was 35 ± 5%. Further, the half-life in [6] was 0.7 h. In series [7], the half-life is 1 h. The “Degradation Onset Timepoint with KLKB1” value in [8] is below 0.5 h. For the same compound, in [9], the Km is 30 ± 4 µM and the “kcat” value stood at 1.4 ± 0.2 s⁻¹.
Consider “Lys-Phe-Arg-Arg-Gln-Arg-Pro-Arg-NMeLeu-Ser-His-Lys-Gly-Pro-Nle-Aib-paraBrPhe”, for which the cleaved bond result in series [1] is reported as “Nle15-Aib16, minor”; in [4] it was “Arg3-Arg4”.
Turning to `CCCCCCCCCCCCCCCC(=O)N[C@@H](CCCCN)C(=O)N[C@@H](Cc1ccccc1)C(=O)N[C@@H](CCCNC(=N)N)C(=O)N[C@@H](CCCNC(=N)N)C(=O)N[C@@H](CCC(N)=O)C(=O)N[C@@H](CCCNC(=N)N)C(=O)N1CCC[C@H]1C(=O)N[C@@H](CCCNC(=N)N)C(=O)N(C)[C@@H](CC(C)C)C(=O)N[C@@H](CO)C(=O)N[C@@H](Cc1cnc[nH]1)C(=O)N[C@@H](CCCCN)C(=O)NCC(=O)N1CCC[C@H]1C(=O)N[C@@H](CCCC)C(=O)NC(C)(C)C(=O)N[C@@H](Cc1ccc(Br)cc1)C(=O)O` [Peptide 58] (Palmitoyl-KFRRQRPR[NMeL]SHKGP[Nle][Aib][Phe(4-Br)]-OH), the half-life in [6] is 2.1 h; in series [7], above 30 h. The “Degradation Onset Timepoint with KLKB1” value in series [8] was determined as 2 h.
As for `CCCCCCCCCCCCCCCC(=O)N[C@@H](CCCCN)C(=O)N[C@@H](Cc1ccccc1)C(=O)N[C@@H](CCCNC(=N)N)C(=O)N[C@@H](CCCNC(=N)N)C(=O)N[C@@H](CCC(N)=O)C(=O)N[C@@H](CCCNC(=N)N)C(=O)N1CCC[C@H]1C(=O)N[C@@H](CCCNC(=N)N)C(=O)N[C@@H](CC(C)C)C(=O)N[C@@H](CO)C(=O)N[C@@H](Cc1cnc[nH]1)C(=O)N[C@@H](CCCCN)C(=O)NCC(=O)N1CCC[C@H]1C(=O)N[C@@H](CCCC)C(=O)NC(C)(C)C(=O)N[C@@H](Cc1ccc(Br)cc1)C(=O)O` [Peptide 56] (Palmitoyl-KFRRQRPRLSHKGP[Nle][Aib][Phe(4-Br)]-OH), the half-life in series [6] is 1 h; in series [7] it was 1.5 h. Moreover, in series [8], the “Degradation Onset Timepoint with KLKB1” value is 1 h.
For the compound LVQPRGSRNGPGPWQGGRRKFRR-QRPRLSHKGPMPF, the cleaved bond result in series [2] was “Pro-Phe”.
